From ChEMBL document CHEMBL1201862, “PubChem BioAssay data set” (2004)
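Dose response: 5 concentrations. Exposure: 48 h. Format: 96-well plates. Endpoint: linear interpolation; highest concentration if not reached. The concentration for 50% growth inhibition is given as GI50.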 Active and inactive are the calls of the source. Cut-off read from the data, not from the text of the source: active = GI50 up to about 1.1 µM and inactive = higher.

Columns and labels:
Assay in all cases: inhibition of tumour cell growth, NCI panel, 48 h
786-0 = system: 786-0
BT-549 = system: BT-549
COLO 205 = system: COLO 205
HCC 2998 = system: HCC 2998
Hs-578T = system: Hs-578T
IGROV-1 = system: IGROV-1
K562 = system: K562
MDA-MB-231 = system: MDA-MB-231
MOLT-4 = system: MOLT-4
NCI-H23 = system: NCI-H23
NCI-H522 = system: NCI-H522
RPMI-8226 = system: RPMI-8226
SK-OV-3 = system: SK-OV-3
SNB-19 = system: SNB-19
SR = system: SR
UACC-62 = system: UACC-62
HCT-116 = system: HCT-116
NCI-H226 = system: NCI-H226
SF-539 = system: SF-539

SMILES	GI50 (786-0)	GI50 (BT-549)	GI50 (COLO 205)	GI50 (HCC 2998)	GI50 (Hs-578T)	GI50 (IGROV-1)	GI50 (K562)	GI50 (MDA-MB-231)	GI50 (MOLT-4)	GI50 (NCI-H23)	GI50 (NCI-H522)	GI50 (RPMI-8226)	GI50 (SK-OV-3)	GI50 (SNB-19)	GI50 (SR)	GI50 (UACC-62)	GI50 (HCT-116)	GI50 (NCI-H226)	GI50 (SF-539)
Cc1cc(NS(=O)(=O)c2ccc(Nc3c4ccccc4nc4c(C(=O)NCCO)cccc34)cc2)no1	30.8 µM (inactive)	16.8 µM (inactive)	32.9 µM (inactive)	40.7 µM (inactive)	21.2 µM (inactive)	25.1 µM (inactive)	26.3 µM (inactive)	17.9 µM (inactive)	7.41 µM (inactive)	39.2 µM (inactive)	11.4 µM (inactive)	19.4 µM (inactive)	35.6 µM (inactive)	37.4 µM (inactive)	22.5 µM (inactive)	20.2 µM (inactive)			
Nc1nc(N)nc(CCCc2nc(N)nc(N)n2)n1	> 100 µM (inactive)	> 100 µM (inactive)	> 100 µM (inactive)		> 100 µM (inactive)	> 100 µM (inactive)	> 100 µM (inactive)	> 100 µM (inactive)	> 100 µM (inactive)	> 100 µM (inactive)	> 100 µM (inactive)	> 100 µM (inactive)	> 100 µM (inactive)	> 100 µM (inactive)	> 100 µM (inactive)	> 100 µM (inactive)	> 100 µM (inactive)	> 100 µM (inactive)	> 100 µM (inactive)
Nc1nc(Cl)c(N)c(NCC2(CO)CCC(OCc3ccccc3)C2)n1 (stereo unspecified)	> 100 µM (inactive)	61.9 µM (inactive)	> 100 µM (inactive)	> 100 µM (inactive)	> 100 µM (inactive)	> 100 µM (inactive)	1.33 µM (inactive)	> 100 µM (inactive)	31.7 µM (inactive)	> 100 µM (inactive)	> 100 µM (inactive)		> 100 µM (inactive)	> 100 µM (inactive)		> 100 µM (inactive)	> 100 µM (inactive)	0.433 µM (active)	> 100 µM (inactive)
COc1cc(CNNC(N)=S)cc(OC)c1OC	> 100 µM (inactive)	22.3 µM (inactive)	> 100 µM (inactive)	> 100 µM (inactive)	> 100 µM (inactive)	> 100 µM (inactive)	> 100 µM (inactive)	> 100 µM (inactive)	> 100 µM (inactive)	> 100 µM (inactive)	> 100 µM (inactive)	> 100 µM (inactive)		> 100 µM (inactive)	> 100 µM (inactive)		> 100 µM (inactive)	> 100 µM (inactive)	> 100 µM (inactive)
O=C1/C(=N/N=C(c2ccccc2)c2ccccc2)c2ccccc2-c2ccccc21	> 100 µM (inactive)	65 µM (inactive)	> 100 µM (inactive)		29.6 µM (inactive)	73.1 µM (inactive)	> 100 µM (inactive)	31.6 µM (inactive)	22.5 µM (inactive)	74 µM (inactive)	54.8 µM (inactive)		> 100 µM (inactive)	> 100 µM (inactive)	51.2 µM (inactive)	55.2 µM (inactive)	52.1 µM (inactive)	38.5 µM (inactive)	> 100 µM (inactive)
COc1ccccc1-c1nc(O)c2ccccc2n1	> 100 µM (inactive)	> 100 µM (inactive)	> 100 µM (inactive)	> 100 µM (inactive)	> 100 µM (inactive)	> 100 µM (inactive)		> 100 µM (inactive)	> 100 µM (inactive)	> 100 µM (inactive)		> 100 µM (inactive)	> 100 µM (inactive)	> 100 µM (inactive)	> 100 µM (inactive)	> 100 µM (inactive)	> 100 µM (inactive)	68.1 µM (inactive)	
O=C1NC(=O)/C(=C/c2ccc(S(=O)(=O)N/N=C\C(O)C(O)C(O)C(O)CO)cc2)N1 (stereo unspecified)	> 100 µM (inactive)	> 100 µM (inactive)	> 100 µM (inactive)	> 100 µM (inactive)	> 100 µM (inactive)	> 100 µM (inactive)	> 100 µM (inactive)	> 100 µM (inactive)	> 100 µM (inactive)	> 100 µM (inactive)		> 100 µM (inactive)	> 100 µM (inactive)	> 100 µM (inactive)	> 100 µM (inactive)	> 100 µM (inactive)	> 100 µM (inactive)	> 100 µM (inactive)	
Nc1ccc(S(=O)(=O)Nc2nc3ccccc3nc2Nc2ccc(S(N)(=O)=O)cc2)cc1	58.3 µM (inactive)	20.2 µM (inactive)	52.6 µM (inactive)		23 µM (inactive)	21.8 µM (inactive)	69.8 µM (inactive)	53.8 µM (inactive)	15.4 µM (inactive)	20.5 µM (inactive)	23.3 µM (inactive)	33.7 µM (inactive)	29.8 µM (inactive)	25.2 µM (inactive)	37 µM (inactive)	30.8 µM (inactive)	38.5 µM (inactive)	56.4 µM (inactive)	31.8 µM (inactive)
